As usually defined, the IC50 is the concentration needed to halve the response being measured.

The target of test [1] is T1, MMP-7 (Homo sapiens, UniProt P09237).
T1 sequence (P09237 95-267): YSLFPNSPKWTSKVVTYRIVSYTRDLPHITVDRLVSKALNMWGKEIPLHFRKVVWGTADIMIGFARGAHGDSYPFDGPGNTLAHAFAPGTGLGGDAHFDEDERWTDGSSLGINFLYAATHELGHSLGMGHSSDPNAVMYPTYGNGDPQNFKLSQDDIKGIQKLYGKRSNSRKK
The following applies: cited from earlier work.

The target in test [2] is MMP-9 (Homo sapiens, UniProt P14780). Particulars: 10 µM inhibitor concentration; cited from earlier work.
For test [3], the target named is MMP-14 (Homo sapiens, UniProt P50281). The following applies: 10 µM inhibitor concentration; cited from earlier work.
For test [4], the target named is T2, MMP-1 (Homo sapiens, UniProt P03956).
T2 sequence (P03956 100-469): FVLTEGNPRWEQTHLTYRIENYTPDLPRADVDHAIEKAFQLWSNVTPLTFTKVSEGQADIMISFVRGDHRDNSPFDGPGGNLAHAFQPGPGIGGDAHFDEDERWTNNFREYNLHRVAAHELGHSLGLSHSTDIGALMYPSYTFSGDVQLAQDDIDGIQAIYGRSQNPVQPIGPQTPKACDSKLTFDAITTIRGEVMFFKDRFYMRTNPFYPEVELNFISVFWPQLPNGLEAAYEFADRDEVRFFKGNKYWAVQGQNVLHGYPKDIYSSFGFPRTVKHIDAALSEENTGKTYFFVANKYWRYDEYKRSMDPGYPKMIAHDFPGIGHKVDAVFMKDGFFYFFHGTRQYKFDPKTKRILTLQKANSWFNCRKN
Particulars: 10 µM inhibitor concentration; cited from earlier work.

For test [5], the target named is T1, MMP-7. The following applies: 10 µM inhibitor concentration; cited from earlier work.
The target of test [6] is MMP-3 (Homo sapiens, UniProt P08254). Particulars: 10 µM inhibitor concentration; cited from earlier work.
The target of test [7] is T3, MMP-2 (Homo sapiens, UniProt P08253).
T3 sequence (P08253 110-660): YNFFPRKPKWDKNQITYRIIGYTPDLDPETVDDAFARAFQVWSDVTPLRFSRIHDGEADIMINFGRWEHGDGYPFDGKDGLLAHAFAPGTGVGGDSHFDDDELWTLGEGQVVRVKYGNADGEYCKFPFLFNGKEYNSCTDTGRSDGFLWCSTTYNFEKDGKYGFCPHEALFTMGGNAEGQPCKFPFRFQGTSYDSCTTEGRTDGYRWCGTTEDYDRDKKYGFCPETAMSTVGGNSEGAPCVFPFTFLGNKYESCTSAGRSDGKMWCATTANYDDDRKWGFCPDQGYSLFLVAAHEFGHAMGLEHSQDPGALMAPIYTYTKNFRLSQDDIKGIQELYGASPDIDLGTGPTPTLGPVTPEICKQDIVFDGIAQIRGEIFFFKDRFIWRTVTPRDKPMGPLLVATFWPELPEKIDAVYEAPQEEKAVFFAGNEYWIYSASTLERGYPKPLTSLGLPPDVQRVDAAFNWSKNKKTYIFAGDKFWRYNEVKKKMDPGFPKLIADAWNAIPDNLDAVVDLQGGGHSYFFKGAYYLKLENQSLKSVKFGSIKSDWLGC
Particulars: 10 µM inhibitor concentration; cited from earlier work.

Test [8] addresses MMP-8 (Homo sapiens, UniProt P22894). The following applies: 10 µM inhibitor concentration; cited from earlier work.
Test [9] addresses MMP-12 (Homo sapiens, UniProt P39900). Particulars: 10 µM inhibitor concentration; cited from earlier work.
The target in test [10] is T1, MMP-7. As to the kind of experiment: MMP-7 FRET peptide enzyme assay (single dose 10 μM and IC50). The following applies: for IC50: IC50 MMP-7, measured in duplicate; for activity at 10 µM: read-out: % Activity MMP-7.
Procedure: (§1) The buffer consisted of 50 mM HEPES at pH 7.5 with 10 mM CaCl2 and 0.01% Brij-35. 0.1 mg/mL BSA (Sigma Aldrich, St. Louis, MO, USA) was added before use. As a control inhibitor GM6001 (ilomastat, Enzo Life Sciences, Farmingdale, NY, USA) was used. For selectivity examinations single dose duplicate assays were performed in the same manner as described above on the MMP-1, -2, -3, -8, -9, -12 and -14 isoforms.
Test [11] addresses MMP-13 (Homo sapiens, UniProt P45452). Description: MMP-13 FRET peptide enzyme assay (single dose 10 μM and IC50). It counts as biochemical. The following applies: for activity at 10 µM: remaining enzyme activity at 10 μM inhibitor concentration; for activity at 10 µM / IC50: measured in duplicate.
Procedure: as §1

Molecules are shown by their SMILES. “And” between values parts separate entries of the source, which are not always exact repeats. Equal values may be shown once. Read-outs that look alike come from different tables or passages of the source.

MMP-12, sequence (P39900 106-470): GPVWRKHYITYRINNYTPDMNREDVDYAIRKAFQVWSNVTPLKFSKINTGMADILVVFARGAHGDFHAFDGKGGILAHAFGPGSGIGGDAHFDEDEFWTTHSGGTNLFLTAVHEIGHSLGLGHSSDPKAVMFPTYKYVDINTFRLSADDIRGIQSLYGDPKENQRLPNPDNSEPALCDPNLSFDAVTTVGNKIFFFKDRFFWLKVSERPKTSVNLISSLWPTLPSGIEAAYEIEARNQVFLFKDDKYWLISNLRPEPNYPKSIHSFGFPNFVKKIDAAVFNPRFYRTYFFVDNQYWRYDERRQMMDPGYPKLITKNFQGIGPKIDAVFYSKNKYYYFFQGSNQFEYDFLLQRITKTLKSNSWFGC
MMP-9, sequence (P14780 94-707): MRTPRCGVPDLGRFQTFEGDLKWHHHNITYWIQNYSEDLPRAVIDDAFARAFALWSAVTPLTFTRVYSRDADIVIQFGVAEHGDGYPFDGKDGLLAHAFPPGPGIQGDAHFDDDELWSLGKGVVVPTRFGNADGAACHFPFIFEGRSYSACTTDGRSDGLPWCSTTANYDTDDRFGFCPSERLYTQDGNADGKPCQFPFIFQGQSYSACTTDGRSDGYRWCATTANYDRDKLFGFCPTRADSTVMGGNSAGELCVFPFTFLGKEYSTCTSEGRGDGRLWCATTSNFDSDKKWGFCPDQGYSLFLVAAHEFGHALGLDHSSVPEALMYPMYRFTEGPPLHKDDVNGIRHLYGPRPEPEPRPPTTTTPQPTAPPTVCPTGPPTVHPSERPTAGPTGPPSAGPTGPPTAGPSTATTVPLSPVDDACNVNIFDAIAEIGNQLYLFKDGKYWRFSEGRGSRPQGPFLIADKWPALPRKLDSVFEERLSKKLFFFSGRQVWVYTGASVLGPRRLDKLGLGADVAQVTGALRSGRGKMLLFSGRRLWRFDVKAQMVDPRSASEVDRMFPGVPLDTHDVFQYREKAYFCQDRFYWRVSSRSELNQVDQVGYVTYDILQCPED
MMP-8, sequence (P22894 101-467): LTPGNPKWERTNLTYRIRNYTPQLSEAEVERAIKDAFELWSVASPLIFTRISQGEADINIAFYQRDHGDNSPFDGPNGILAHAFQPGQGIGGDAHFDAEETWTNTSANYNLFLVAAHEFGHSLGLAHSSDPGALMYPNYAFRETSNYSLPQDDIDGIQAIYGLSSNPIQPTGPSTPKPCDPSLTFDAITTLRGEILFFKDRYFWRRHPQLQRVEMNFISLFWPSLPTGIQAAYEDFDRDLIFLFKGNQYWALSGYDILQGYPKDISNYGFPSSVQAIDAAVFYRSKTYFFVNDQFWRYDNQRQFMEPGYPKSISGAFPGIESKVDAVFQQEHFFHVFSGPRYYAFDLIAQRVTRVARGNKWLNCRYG
MMP-3, sequence (P08254 100-477): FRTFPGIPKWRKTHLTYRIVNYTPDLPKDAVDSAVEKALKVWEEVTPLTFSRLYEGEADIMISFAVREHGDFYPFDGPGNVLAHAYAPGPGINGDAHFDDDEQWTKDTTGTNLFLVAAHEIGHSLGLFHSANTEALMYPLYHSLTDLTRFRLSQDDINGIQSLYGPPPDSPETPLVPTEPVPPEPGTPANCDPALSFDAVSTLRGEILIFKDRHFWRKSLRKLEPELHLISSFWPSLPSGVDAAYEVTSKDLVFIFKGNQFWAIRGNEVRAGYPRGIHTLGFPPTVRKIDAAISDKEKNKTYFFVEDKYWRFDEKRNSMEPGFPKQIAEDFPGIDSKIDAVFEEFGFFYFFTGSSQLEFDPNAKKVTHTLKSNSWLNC

For the compound `O=C(O)C(Cc1c[nH]c2ccccc12)NS(=O)(=O)c1ccc(Cl)c(C(F)(F)F)c1` (stereo not shown) [Compound 3], in test [1] (MMP-7 over MMP-1), the “selectivity over MMP-1” value was 10 fold. Moreover, in test [1] (MMP-7 over MMP-14), the “selectivity over MMP-14” value is 10 fold. In test [1], the IC50 is 10 µM.

As to `O=C(O)CCCCOc1ccc(CC(=O)Nc2ccc3c(c2)C(=O)N(Cc2ccc(F)cc2)C3=O)cc1` [Compound 5, 5-{4-[({2-[(4-Fluorophenyl)methyl]-1,3-dioxo-2,3-dihydro-1H-isoindol-5-yl}carbamoyl)methyl]-phenoxy}pentanoic acid], the “Remaining enzymatic activity MMP-9” value in test [2] is reported as 100%. Further, the “Remaining enzymatic activity MMP-14” value in [3] is 100%. Also, the “Remaining enzymatic activity MMP-1” value in test [4] is given as 100%. Besides, in test [5], the “Remaining enzymatic activity MMP-7” value is reported as 68%. Besides, the “Remaining enzymatic activity MMP-3” value in test [6] was 100%. Further, the “Remaining enzymatic activity MMP-2” value in test [7] was 100%. Moreover, the “Remaining enzymatic activity MMP-8” value in test [8] is 97%. For the same compound, the “Remaining enzymatic activity MMP-12” value in [9] is listed as 91%. For the same compound, in [10], the half-inhibitory concentration (IC50) was 15.7 µM and 15.6 µM; the activity at 10 µM was determined as 67.5 ± 2.6%. Besides, in test [11] (from IC50-values), the “selectivity for MMP-13 over MMP-7” value is on record as over 2600 fold.

Turning to `CN1C(=O)c2ccc(NC(=O)Cc3ccc(OCCCCC(=O)O)cc3)cc2C1=O` [Compound 14a, 5-(4-{[(2-Methyl-1,3-dioxo-2,3-dihydro-1H-isoindol-5-yl)carbamoyl]methyl}phenoxy)pentanoic acid], in test [10] (discussion of structure activity relationship), the “inhibition of MMP-7 (in words)” value is reported as “total loss of inhibition”. The activity at 10 µM in test [10] was 100 ± 4.4%; in test [11] it was 23.7 ± 3.3%.

In the case of `O=C(O)COc1ccc(CC(=O)Nc2ccc3c(c2)C(=O)N(Cc2ccccc2)C3=O)cc1` [Compound 14b, 2-(4-{[(2-Benzyl-1,3-dioxo-2,3-dihydro-1H-isoindol-5-yl)carbamoyl]methyl}phenoxy)acetic acid], the activity at 10 µM in test [10] stood at 89.9 ± 10%; in test [11] it was 58.7 ± 2.7%.

As for `O=C(O)CCOc1ccc(CC(=O)Nc2ccc3c(c2)C(=O)N(Cc2ccccc2)C3=O)cc1` [Compound 14c, 3-(4-{[(2-Benzyl-1,3-dioxo-2,3-dihydro-1H-isoindol-5-yl)carbamoyl]methyl}phenoxy)propanoic acid], the activity at 10 µM in test [10] is 93.1 ± 1.7%; in [11] it was 35.8 ± 5.1%.

Consider `O=C(O)CCCOc1ccc(CC(=O)Nc2ccc3c(c2)C(=O)N(Cc2ccccc2)C3=O)cc1` [Compound 14d, 4-(4-{[(2-Benzyl-1,3-dioxo-2,3-dihydro-1H-isoindol-5-yl)carbamoyl]methyl}phenoxy)butanoic acid], for which the activity at 10 µM is 91.3 ± 0.4% in test [10] and 2.6 ± 1.3% in [11].

For the compound `O=C(O)CCCCOc1ccc(CC(=O)Nc2ccc3c(c2)C(=O)N(Cc2ccccc2)C3=O)cc1` [Compound 14e, 5-(4-{[(2-Benzyl-1,3-dioxo-2,3-dihydro-1H-isoindol-5-yl)carbamoyl]methyl}phenoxy)pentanoic acid], in test [10], the activity at 10 µM came to 93.2 ± 3.3%.

For `O=C(O)CCCCCOc1ccc(CC(=O)Nc2ccc3c(c2)C(=O)N(Cc2ccccc2)C3=O)cc1` [Compound 14f, 6-(4-{[(2-Benzyl-1,3-dioxo-2,3-dihydro-1H-isoindol-5-yl)carbamoyl]methyl}phenoxy)hexanoic acid], the activity at 10 µM in [10] turned out to be 59.4 ± 0.2%; in test [11] it was 2.5 ± 0.1%.

For the compound `O=C(O)CCCCCCOc1ccc(CC(=O)Nc2ccc3c(c2)C(=O)N(Cc2ccccc2)C3=O)cc1` [Compound 14g, 7-(4-{[(2-Benzyl-1,3-dioxo-2,3-dihydro-1H-isoindol-5-yl)carbamoyl]methyl}phenoxy)heptanoic acid], the activity at 10 µM in [10] came out at 53.8 ± 0.8%. In [11], this compound returned an IC50 of 0.15 ± 0.031 µM and an activity at 10 µM of 1 ± 0.1%.

Consider `O=C(O)CCCCCCCOc1ccc(CC(=O)Nc2ccc3c(c2)C(=O)N(Cc2ccccc2)C3=O)cc1` [Compound 14h, 8-(4-{[(2-Benzyl-1,3-dioxo-2,3-dihydro-1H-isoindol-5-yl)carbamoyl]methyl}phenoxy)octanoic acid], for which, in test [10], the IC50 was found to be 3.18 ± 0.249 µM and the activity at 10 µM was 25.9 ± 0.5%. In test [11], the midpoint of inhibition, the IC50, lay at 1.67 ± 0.429 µM and the activity at 10 µM was determined as 16 ± 0.14%.

On to `O=C(O)CCCCCCCCCOc1ccc(CC(=O)Nc2ccc3c(c2)C(=O)N(Cc2ccccc2)C3=O)cc1` [Compound 14j, 10-(4-{[(2-Benzyl-1,3-dioxo-2,3-dihydro-1H-isoindol-5-yl)carbamoyl]methyl}phenoxy)decanoic acid], for which the 50% inhibitory concentration (IC50) worked out at 6.2 ± 1.85 µM in test [10] and 7.12 ± 0.94 µM in test [11].

With `O=C(O)CCOc1ccc(CC(=O)Nc2ccc3c(c2)C(=O)N(Cc2ccc(F)cc2)C3=O)cc1` [Compound 14k, 3-{4-[({2-[(4-Fluorophenyl)methyl]-1,3-dioxo-2,3-dihydro-1H-isoindol-5-yl}carbamoyl)methyl]-phenoxy}propanoic acid], the activity at 10 µM in test [10] amounted to 98 ± 7.3%; in [11] it was 37 ± 0.2%.

In the case of `O=C(O)CCCOc1ccc(CC(=O)Nc2ccc3c(c2)C(=O)N(Cc2ccc(F)cc2)C3=O)cc1` [Compound 14l, 4-{4-[({2-[(4-Fluorophenyl)methyl]-1,3-dioxo-2,3-dihydro-1H-isoindol-5-yl}carbamoyl)methyl]-phenoxy}butanoic acid], the activity at 10 µM in [10] came to 85.1 ± 2.2%; in [11] it was 3.6 ± 1.1%. The IC50 in [11] stood at 0.361 ± 0.052 µM.

For the compound `O=C(O)CCCCCOc1ccc(CC(=O)Nc2ccc3c(c2)C(=O)N(Cc2ccc(F)cc2)C3=O)cc1` [Compound 14m, 6-{4-[({2-[(4-Fluorophenyl)methyl]-1,3-dioxo-2,3-dihydro-1H-isoindol-5-yl}carbamoyl)methyl]-phenoxy}hexanoic acid], the activity at 10 µM in test [10] is 69.2 ± 0.1%; in test [11], 1.2 ± 0.1%.

As to `O=C(O)CCCCCCOc1ccc(CC(=O)Nc2ccc3c(c2)C(=O)N(Cc2ccc(F)cc2)C3=O)cc1` [Compound 14n, 7-{4-[({2-[(4-Fluorophenyl)methyl]-1,3-dioxo-2,3-dihydro-1H-isoindol-5-yl}carbamoyl)methyl]-phenoxy}heptanoic acid], the values for the activity at 10 µM in [10] and in [11] were 47.5 ± 5.1% and 1.9 ± 0.5%, respectively.

As to `O=C(O)CCCCCCCOc1ccc(CC(=O)Nc2ccc3c(c2)C(=O)N(Cc2ccc(F)cc2)C3=O)cc1` [Compound 14o, 8-{4-[({2-[(4-Fluorophenyl)methyl]-1,3-dioxo-2,3-dihydro-1H-isoindol-5-yl}carbamoyl)methyl]-phenoxy}octanoic acid], the activity at 10 µM was 64.5 ± 3.7% in test [10] and 34.6 ± 2.3% in test [11].

(Values after publication PMC6151531, “Development of a Non-Hydroxamate Dual Matrix Metalloproteinase (MMP)-7/-13 Inhibitor” (Molecules : A Journal of Synthetic Chemistry and Natural …, 2017).)
